Read-outs that look alike come from different tables or passages of the source.
Legend:
[1] = crosslinker bond, 12-membered ring, CH3CN, 60.0 °C
[2] = Buffer stability of Example 17 radiolabeled with ^68GaCl3; format: physicochemical; details: ^68Ga-labeled, sodium acetate/acetic acid reaction buffer, t=4 hours; RCP at t=0 75%
Experimental: A solution of sodium acetate trihydrate in water 1.5 M (740.0 μL), acetic acid (260.0 μL) and (((1S)-5-((2R)-2-amino-3-((2,5-dioxo-1-(4-(3,6,9-tris(carboxymethyl)-3,6,9-triaza-1(2,6)-pyridinacyclodecaphane-4-yl)butyl)pyrrolidin-3-yl)thio)propanamido)-1-carboxypentyl)carbamoyl)-L-glutamic acid (2 mM; 1.907 mg/mL; […]) were added to a 8 mL glass V-vial. This vial was sealed, the vacuum needle and the ^68Ga/HCl 0.1M needle were connected to the vial. The gallium generator was eluted to the reaction vial (approximately 260 MBq [^68Ga]GaCl3 in HCl 0.1M, 1.1 mL). The vacuum needle and the ^68Ga/HCl 0.1M needle were disconnected from the reaction vial. After shaking (600 rpm) at 45° C. for 30 min, the reaction mixture was left cooling down for few minutes. The radiochemical purity and stability were assessed using HPLC-1 conditions: Waters; column: Phenomenex Luna; particle size 2.5 μm; size: 4.6×100 mm; flow rate: 1 mL/min; mobile phase A: H2O+0.1% TFA and B: CH3CN; gradient: 10 to 80% solvent B in 9 min. RCP at t=0, 75% and stability t=4 hours, 74%.

[3] = Buffer stability of Example 17 radiolabeled with ^177LuCl3; format: physicochemical; details: ^177Lu-labeled, formulation diluted with PBS, RCP at t=0 93%
Experimental: To a mixture of sodium acetate in water (35.0 μL, 1.5 M), ascorbic acid in H2O (35.00 μL, 0.04 M), ethanol (58.5 μL) and acetic acid (1.5 μL) was added [^177Lu]LuCl3 ([…], 0.04 M HCl, 58.2 MBq). A solution of (((1S)-5-((2R)-2-amino-3-((2,5-dioxo-1-(4-(3,6,9-tris(carboxymethyl)-3,6,9-triaza-1(2,6)-pyridinacyclodecaphane-4-yl)butyl)pyrrolidin-3-yl)thio)propanamido)-1-carboxypentyl)carbamoyl)-L-glutamic acid (7.9 μL) of a 0.2 mM in water was added. After shaking (450 rpm) at 95° C. for 15 min, the reaction mixture was left cooling down for few minutes. The solution was diluted with 385 μl of PBS to keep the final formulation with EtOH below 9%. The radiochemical purity and stability were assessed using HPLC-1 conditions: Waters; column: phenomenex Luna; particle size 2.5 μm; size: 4.6×100 mm; flow rate: 1 mL/min; mobile phase A: H2O+0.1% TFA and B: CH3CN; gradient: 10 to 80% solvent B in 9 min.

[4] = crosslinker bond; 12-membered ring; intermediate G (1 eq)/DIPEA (5 eq); CH3CN; 15.6 mM; 60.0 °C

With CC(C)(C)OC(=O)C[C@@H](NCCOCCN[C@H](CC(=O)OC(C)(C)C)c1ccccn1)C(=O)OC(C)(C)C the ring closure, isolated yield ([1]; the molecule shown is the open-chain precursor, methyl 2,6-bis(bromomethyl)isonicotinate (1 eq)/DIPEA (5 eq), 20.9 mM) was 48.7%.

In the case of N[C@@H](CSC1CC(=O)N(CCCCC2CN(CC(=O)O)CCN(CC(=O)O)Cc3cccc(n3)CN2CC(=O)O)C1=O)C(=O)NCCCC[C@H](NC(=O)N[C@@H](CCC(=O)O)C(=O)O)C(=O)O (stereo partly drawn) [Example 17, (((1S)-5-((2R)-2-amino-3-((2,5-dioxo-1-(4-(3,6,9-tris(carboxymethyl)-3,6,9-triaza-1(2,6)-pyridinacyclodecaphane-4-yl)butyl)pyrrolidin-3-yl)thio)propanamido)-1-carboxypentyl)carbamoyl)-L-glutamic acid], the “stability (radiochemical purity by HPLC)” value [2] is reported as 74%, the “stability (radiochemical purity by HPLC)” value ([3]; t=4 hours) is reported as 94% and the “stability (radiochemical purity by HPLC)” value ([3]; t=8 hours) is reported as 95%. The “stability (radiochemical purity by HPLC)” value ([3]; t=24 hours) was 94%.

For “Tetra-tert-butyl 2,2′-(1^4-(3-((tert-butoxycarbonyl)amino)propoxy)-3,7-diaza-1(2,6)-pyridina-5(1,3)-benzenacyclooctaphane-3,7-diyl)(2R,2′R)-disuccinate”, the ring closure, isolated yield ([1]; 2,6-bis(bromomethyl)pyridine (1 eq)/DIPEA (5 eq), 32.6 mM) was 55.3%.

Molecule “Tetra-tert-butyl 2,2′-(1^4-(methoxycarbonyl)-6-oxa-3,9-diaza-1(2,6)-pyridinacyclodecaphane-3,9-diyl)(2R,2′R)-disuccinate” has a ring closure, isolated yield ([1]; methyl 2,6-bis(bromomethyl)isonicotinate (1 eq)/DIPEA (5 eq), 17.9 mM) of 57.1%.

For “Tri-tert-butyl 2,2′,2″-(1^4-(3-((tert-butoxycarbonyl)amino)propoxy)-3,6,9-triaza-1(2,6)-pyridinacyclodecaphane-3,6,9-triyl)(2S,2′S,2″S)-tripropionate”, the ring closure, yield after HPLC [4] was 52%.

— US20260199535A1, “PCTA derivatives, conjugates thereof and uses thereof” (NOVARTIS AG, priority 2022, published 2026)
